Values quoted from earlier work, collected in PMC10239758 (European journal of medicinal chemistry, 2023).
In brackets after ≈: the same amount, converted by molar mass.

Tested on: Mtb strain H37Rv
Conditions: cited from earlier work

## Cc1cc(C)c2cc(C(=O)NC3CCCCCC3)[nH]c2c1 [Compound 6]
  MIC H37Rv: 3.9 ng/mL (≈ 0.0137 µM)
